Data reported in BindingDB's records for PubMed 34889100 (University of Health Sciences and Pharmacy, 2021).

Biological target: Bile acid receptor NR1H4 (Homo sapiens) (UniProt Q96RI1)
Assay: Agonist activity at FXR in human HepG2 cells

Sequence of Bile acid receptor NR1H4 (Homo sapiens) (Q96RI1 whole entry, looked up): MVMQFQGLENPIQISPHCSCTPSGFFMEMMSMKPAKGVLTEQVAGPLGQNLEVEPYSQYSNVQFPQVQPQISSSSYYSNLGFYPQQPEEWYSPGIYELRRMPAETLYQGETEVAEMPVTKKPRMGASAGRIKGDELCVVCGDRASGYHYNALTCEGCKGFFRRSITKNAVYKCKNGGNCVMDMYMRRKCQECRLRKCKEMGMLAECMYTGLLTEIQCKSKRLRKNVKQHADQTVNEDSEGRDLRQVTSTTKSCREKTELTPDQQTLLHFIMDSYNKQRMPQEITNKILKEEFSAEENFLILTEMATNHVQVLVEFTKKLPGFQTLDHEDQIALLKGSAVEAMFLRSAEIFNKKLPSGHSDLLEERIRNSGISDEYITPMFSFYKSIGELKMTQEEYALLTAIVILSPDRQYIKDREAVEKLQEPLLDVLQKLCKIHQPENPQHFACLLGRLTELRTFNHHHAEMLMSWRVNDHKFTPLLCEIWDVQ

| EC50 | Structure (SMILES) |
| --- | --- |
| 0.75 nM | O=C(O)c1ccc([C@@H]2C[C@H]2c2ccc(OCc3c(-c4c(Cl)cccc4Cl)noc3C3CC3)cc2Cl)cc1 |
| 0.35 nM | O=C(O)c1cc(F)c2nc(N3C[C@@H]4C[C@H]3C[C@H]4OCc3c(-c4ccccc4OC(F)(F)F)noc3C3CC3)sc2c1 |
